{"source": "patent US8426369B2", "about": "“Prevention and treatment of colon cancer” (Rutgers, The State University of New Jersey, priority 2006, dated 2013)", "key": {"[1]": {"system": "azoxymethane-induced aberrant crypt foci (ACF)", "assay": "Azoxymethane-induced aberrant crypt foci (ACF) in rat colon, dietary pterostilbene", "type": "in vivo, male F344 rats", "conditions": "for inhibition at 40 ppm: Rattus norvegicus, feed or water, 40 ppm in diet, compared to control diet", "experimental": "Weanling male F344 rats were obtained from Charles River Breeding Laboratories (Kingston, N.Y.). All experimental diets were purchased from Research Diets (New Brunswick, N.J.) and stored at 4° C. All animals were randomly distributed by weight into control and experimental groups and housed in plastic cages with filter tops (three per cage) under controlled conditions of a 12-hr light and dark cycle, 50% humidity and 21° C. temperature. Animals had access to food and water at all times. Food cups were replenished with fresh diet two times weekly.\nBeginning at 5 weeks of age, all rats were fed the modified American Institute of Nutrition-76A (AIN-76A) diet. At 7 weeks of age, the animals were given s.c. injections of azoxymethane (AOM) (CAS no. 25843-45-2, Ash Stevens, Detroit, Mich.) once weekly for 2 weeks at a dose rate of 15 mg/kg body weight. One day after the second AOM injection, groups of animals (n=9 per group) were maintained on AIN-76A diet alone and AIN-76A diet containing 40 ppm pterostilbene. […] See, e.g., U.S. Application Publication No. US 2006-0057231 A1.\nOn the average, the animal consumed about 0.6 mg pterostilbene per day. All rats were weighed once weekly until termination of the study at 8 weeks after the second AOM treatment were sacrificed by CO2 asphyxiation. After laparotomy, the entire stomach, small intestine, and large intestine were resected. The organs were opened longitudinally, and the contents were flushed with normal saline.\nFor the ACF analysis, the colons were fixed flat between two pieces of filter paper in 10% buffered formalin for a minimum of 24 hr. The colons were then cut into 2-cm segments, starting at the anus. They were stained with 0.2% methylene blue in Krebs-Ringer solution for 5-10 min, and were then placed mucosal side up on a microscope slide and observed through a light microscope. ACF were counted and recorded according to standard procedures that are being used routinely in the laboratory. […] The parameters used to assess the aberrant crypts were their occurrence and multiplicity. Crypt multiplicity was determined as the number of crypts in each focus. Multicrypts were categorized as containing up to four or more aberrant crypts/focus.\n(§1) Total number of ACF/colon and multiple aberrant crypts/focus were counted and the data were analyzed by Student's t-test. The PCNA labeling index (PI) was calculated as the [(number of positive cells)/(total number of cells)]×100 for each field which is averaged to get the PI for each section. The significance of treatment between the groups was analyzed by Student's t-Test."}, "iNOS": {"system": "iNOS", "assay": "iNOS immunostaining of colon sections", "type": "in vivo, male F344 rats", "conditions": "40 ppm in diet, AOM-treated rats", "experimental": "(§2) Animals were treated as described in Example 27. Colon samples from each group were harvested at autopsy and fixed in 10% formalin for 24 hr. They were sectioned into 8 to 10 segments, paraffin embedded, and microtomed into 4 μm thick tissue sections. The slides were incubated overnight at room temperature with antibody to proliferating cell nuclear antigen (PCNA) (1:1000 diluted, BD Pharmingen, San Diego, Calif.), iNOS (1:100 diluted, Santa Cruz Biotechnology, Santa Cruz, Calif.), or mucin MUC2 (1:250 diluted, Santa Cruz Biotechnology, Santa Cruz, Calif.).\n(§3) The slides were incubated with the biotinylated secondary antibody, and then with avidin/biotinylated peroxidase complex for 30 min at room temperature (Vector Labs, Burlingame, Calif.), and were incubated with […] (DAB) substrate. The sections were then counter-stained with Modified Harris Hematoxylin. The images were taken randomly at 400× using Zeiss AxioCam HRc camera fitted to a Zeiss Axioskope 2 Plus microscope. A positive reaction is noted by a reddish brown precipitate in the nucleus for PCNA, in the cytoplasm for iNOS or in the colon crypts for mucin MUC2."}, "IκBα": {"system": "IκBα", "assay": "Western blot of IκBα after cytokine treatment of HT-29 cells", "type": "cell-based, human", "conditions": "cytokine treatment 15 min", "experimental": "(§4) The cell culture conditions and the reagents used in this example were described in Example 32. Whole cell extracts were collected after the various treatments and analyzed by western blotting. The protein samples were separated on 4-15% SDS-PAGE gels (Biorad, Hercules, Calif.) followed by transfer to a polyvinylidene fluoride membrane. The membranes were blocked with 5% milk in Tris buffer for 1 h and then incubated with the appropriate primary antibody solutions overnight at 4° C. The membranes were washed with Tris buffer, and incubated with horseradish peroxidase conjugated secondary antibody solutions for 1 h at room temperature.\nThe protein bands were visualized using a chemiluminescence based kit from Amersham Biosciences (Buckinghamshire, UK). The primary antibodies against iNOS, COX-2, IκBα, cyclin D1, c-myc (Santa Cruz Bio-technology, Santa Cruz, Calif.), phospho-STAT3, phospho-Erk1/2, phospho-JNK1/2, phospho-p38, phospho-Akt, phospho-ATF2, phospho-Elk1, PARP (Cell Signaling Technology Inc., Beverly, Mass.) and actin (Sigma, St. Louis, Mo.) and secondary antibodies (Santa Cruz Biotechnology, Santa Cruz, Calif.) were used for probing the abundance of the target protein in the samples.\nThe significance of the JAK-STAT pathway in HT-29 cells was evaluated by probing for phospho-STAT3. Cytokines activated the STAT pathway, as shown by a strong induction of phospho-STAT3."}, "p65 subunit of NF-κB": {"system": "p65 subunit of NF-κB", "assay": "Nuclear protein level of p65 subunit of NF-κB in HT-29 cells", "type": "cell-based, human", "conditions": "HT-29, data not shown"}, "[2]": {"system": "proliferating cell nuclear antigen (PCNA)", "assay": "PCNA immunostaining and labeling index of colon sections", "type": "in vivo, male F344 rats", "conditions": "40 ppm in diet, AOM-treated rats", "experimental": "as §1, §2\nas §3, with “A positive reaction is noted by a reddish brown precipitate in the nucleus for PCNA, in the cytoplasm for iNOS or in the colon crypts for mucin MUC2.” left out"}, "p27": {"system": "p27", "assay": "Western blot of p27 in HT-29 cells", "type": "cell-based, human", "conditions": "HT-29, data not shown", "experimental": "The cells were incubated with different concentrations of pterostilbene for 1, 2 and 3 days, and cell proliferation was estimated by measuring [^3H]thymidine incorporated into DNA. […] In order to evaluate whether pterostilbene potentiates cell cycle arrest or apoptosis in HT-29 cells, the effect of pterostilbene on the proteins regulating the cell cycle and/or apoptosis pathways was examined. Cells treated with pterostilbene for 9 h or 18 h were harvested and protein samples were analyzed by Western blotting (FIG. 8B).\nas §4\nThe protein bands were visualized using a chemiluminescence based kit from Amersham Biosciences (Buckinghamshire, UK). […]"}, "mucin MUC2": {"system": "mucin MUC2", "assay": "Mucin MUC2 immunostaining of colon sections", "type": "in vivo, male F344 rats", "conditions": "40 ppm in diet, AOM-treated rats", "experimental": "as §2, §3"}, "[3]": {"conditions": "40 ppm in AIN-76A diet, 8 weeks after second AOM treatment, Mean ± S.D. (n = 9)"}}, "note": "Read-outs that look alike come from different tables or passages of the source.", "data": [{"smiles": "COc1cc(/C=C/c2ccc(O)cc2)cc(OC)c1", "note": "[pterostilbene, (E)-4-(3,5-dimethoxystyryl)phenol]", "values": [{"measurement": ">4 ACF/colon", "setting": "[1]; [3]", "result": "25.1 ± 5.6"}, {"measurement": "ACF/colon", "setting": "[1]; [3]", "result": "117 ± 12"}, {"measurement": "inhibition at 40 ppm", "setting": "[1]; read-out: inhibition of multiple aberrant crypts/focus", "result": 29, "unit": "%"}, {"measurement": "inhibition at 40 ppm", "setting": "[1]; read-out: inhibition of total ACF/colon", "result": 57, "unit": "%"}, {"measurement": "iNOS staining of ACF with moderate dysplasia", "setting": "iNOS", "result": "weak cytoplasmic staining"}, {"measurement": "effects on IκBα induced by the cytokines", "setting": "IκBα", "result": "did not block"}, {"measurement": "nuclear protein levels of the p65 subunit of NF-κB", "setting": "p65 subunit of NF-κB", "result": "remained high and unaltered"}, {"measurement": "PCNA positive cells (%) of colon tissue", "setting": "[2]", "result": "44.2±2.9", "unit": "%"}, {"measurement": "induction of p27", "setting": "p27", "result": "no induction"}, {"measurement": "mucin MUC2 staining of colon mucosa", "setting": "mucin MUC2", "result": "abundant secretion of mucin MUC2"}]}]}
